# Experimental data reported in publication PMC3541164, “Cytotoxic and potent CYP1 inhibitors from the marine algae Cymopolia barbata” (Organic and Medicinal Chemistry Letters, 2012).
# Entries after “also recorded” stand apart in the source; their conditions may differ. Like-named read-outs stand apart in the source and are kept apart here.
# Columns and labels:
# [1] = molecular target: T1, CYP2C19 (Homo sapiens, UniProt P33261); assay: Fluorometric CYP inhibition assay, CEC dealkylation; assay type: in vitro ADME; settings: recombinant CYP2C19, CEC 25 μM
# T1 sequence (P33261 whole entry): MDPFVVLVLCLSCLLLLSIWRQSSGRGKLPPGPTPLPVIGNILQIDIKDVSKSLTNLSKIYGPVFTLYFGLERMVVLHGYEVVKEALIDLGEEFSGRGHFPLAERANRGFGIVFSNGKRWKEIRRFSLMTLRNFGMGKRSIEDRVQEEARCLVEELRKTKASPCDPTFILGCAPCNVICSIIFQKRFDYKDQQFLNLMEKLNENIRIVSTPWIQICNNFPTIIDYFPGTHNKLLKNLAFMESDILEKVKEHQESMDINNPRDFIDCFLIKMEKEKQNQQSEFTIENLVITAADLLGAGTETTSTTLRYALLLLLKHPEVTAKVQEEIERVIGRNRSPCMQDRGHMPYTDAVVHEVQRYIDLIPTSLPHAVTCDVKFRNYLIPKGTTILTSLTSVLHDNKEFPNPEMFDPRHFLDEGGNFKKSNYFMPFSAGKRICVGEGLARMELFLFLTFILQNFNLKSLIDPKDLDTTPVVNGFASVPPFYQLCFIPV
# Procedure: (§2) The test compounds were evaluated for their ability to inhibit the catalytic activity of human CYP1 enzymes by means of high throughput fluorometric detection assays conducted in 96-well microtitre plates as described elsewhere [16, 17]. 7-Ethoxyresorufin (ERes) was used as a substrate for detecting activity of CYP1B1 and 7-ethoxy-3-cyanocoumarin (CEC) was used as a substrate for both CYP1A1 and CYP1A2. Further, the substrates, 3-[2-(NN-diethyl-N-methylamino)ethyl]-7-methoxy-4methylcoumarin (AMMC), 7-benzyloxy-4-trifluoromethylcoumarin (BFC), and CEC were used as substrates for CYP2D6, CYP3A4, and CYP2C19, respectively. The reactions were monitored fluorometrically at 37°C, using a Varian Cary Eclipse fluorescence spectrophotometer.
# (§3) IC50 and Ki values were determined by fitting the data in Sigma Plot (version 10.0) and enzyme kinetics module, using nonlinear regression analysis. The apparent Ki values were determined on the basis of visual inspection of Eadie-Hofstee and various statistics to evaluate goodness of fit, such as the size of the sum of squares of residuals, Akaike information criterion, and standard error (Enzyme kinetics module, version 1.3). The data listed represent the average values from three different determinations.
# (§4) Data are expressed as mean percentage of control enzyme activity for three independent experiments.
# [2] = molecular target: T1, CYP2C19; settings: read-out: published IC50 CYP2C19; published value for known inhibitor; cited from earlier work
# [3] = system: HT29 cells; assay: MTS cell viability assay, colon cancer cells; assay type: cell-based; settings: colon cancer cell line, 24 h exposure, MTS; for IC50: Homo sapiens, HT-29
# Procedure: (§1) Cell lines (CCD18 Co, HepG2 and MCF-7) were maintained in ATCC-formulated Eagle’s Minimum Essential Medium and HT29 was maintained in McCoy’s 5a Modified Medium supplemented with 10% fotal bovine serum (Atlas; Fort Collins, CO, USA), 10 mM HEPES solution, 100 mM L-glutamine penicillin streptomycin solution, 3 g/L glucose, and 1.5 g/L of sodium bicarbonate. Cells were maintained at 37°C with 5% CO2 in Corning 75 cm^2 culture flasks. Cells were exposed to a given isolate or known anticancer agent for 24 h. Following the appropriate treatments, cell viability was evaluated using an MTS assay according to the manufacturer’s instructions. All assays were performed at least three times and were monitored spectrophotometrically at 590 nm. Cell viability was recorded as percentage relative to vehicle solvent-treated control.
# [4] = system: CCD18 Co cells; assay: MTS cell viability assay, normal colon cells; assay type: cell-based; settings: normal colon cell line, 24 h exposure, MTS; for IC50: Homo sapiens, CCD-18Co
# Procedure: as §1
# [5] = MTS cell viability assay, colon cancer cells; assay type: cell-based; settings: human, HT29 colon cancer cells; at 60 μM, HT29; read-out: impact on cell viability
# Procedure: as §1
# [6] = MTS cell viability assay, liver cancer cells; assay type: cell-based; settings: human, HepG2 liver cancer cells; at 60 μM, HepG2; read-out: impact on cell viability
# Procedure: as §1
# [7] = system: HepG2 cells; assay: MTS cell viability assay, liver cancer cells; assay type: cell-based; settings: liver cancer cells, 24 h exposure, MTS
# Procedure: as §1
# [8] = molecular target: T2, CYP1B1 (Homo sapiens, UniProt Q16678); assay: Fluorometric CYP inhibition assay, ERes dealkylation; assay type: biochemical; settings: for nature of inhibition of CYP1B1 activity: Eadie-Hofstee analysis, reversible; for Ki: apparent Ki, ERes dealkylation
# T2 sequence (Q16678 1-543): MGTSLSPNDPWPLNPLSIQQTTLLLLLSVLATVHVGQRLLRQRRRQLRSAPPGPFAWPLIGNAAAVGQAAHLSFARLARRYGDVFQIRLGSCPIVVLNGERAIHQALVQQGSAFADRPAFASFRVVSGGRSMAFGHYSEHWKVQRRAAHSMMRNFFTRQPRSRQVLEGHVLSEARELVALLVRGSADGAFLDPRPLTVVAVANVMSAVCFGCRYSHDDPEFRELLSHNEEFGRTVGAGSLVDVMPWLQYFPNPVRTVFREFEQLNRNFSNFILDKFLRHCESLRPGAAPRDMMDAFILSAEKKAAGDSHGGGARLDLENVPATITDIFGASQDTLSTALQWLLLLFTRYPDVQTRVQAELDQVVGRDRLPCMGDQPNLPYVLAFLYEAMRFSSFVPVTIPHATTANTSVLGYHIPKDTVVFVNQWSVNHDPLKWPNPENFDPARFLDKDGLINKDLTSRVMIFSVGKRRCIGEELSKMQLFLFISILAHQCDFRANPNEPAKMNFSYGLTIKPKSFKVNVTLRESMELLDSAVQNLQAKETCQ
# Procedure: as §2, §3, §4
# [9] = system: MCF-7 cells; assay: MTS cell viability assay, breast cancer cells; assay type: cell-based; settings: breast cancer cells, 24 h exposure, MTS
# Procedure: (§5) Cells were maintained at 37°C with 5% CO2 in Corning 75 cm^2 culture flasks. Cells were exposed to a given isolate or known anticancer agent for 24 h. Following the appropriate treatments, cell viability was evaluated using an MTS assay according to the manufacturer’s instructions [14]. All assays were performed at least three times and were monitored spectrophotometrically at 590 nm [15]. Cell viability was recorded as percentage relative to vehicle solvent-treated control.
# [10] = MTS cell viability assay, breast cancer cells; assay type: cell-based; settings: human, MCF-7 breast cancer cells; at 60 μM, MCF-7; read-out: impact on cell viability
# Procedure: as §5
# [11] = molecular target: CYP3A4 (Homo sapiens, UniProt P08684); assay: Fluorometric CYP inhibition assay, BFC debenzylation; assay type: in vitro ADME
# Chain of CYP3A4 (P08684 whole entry): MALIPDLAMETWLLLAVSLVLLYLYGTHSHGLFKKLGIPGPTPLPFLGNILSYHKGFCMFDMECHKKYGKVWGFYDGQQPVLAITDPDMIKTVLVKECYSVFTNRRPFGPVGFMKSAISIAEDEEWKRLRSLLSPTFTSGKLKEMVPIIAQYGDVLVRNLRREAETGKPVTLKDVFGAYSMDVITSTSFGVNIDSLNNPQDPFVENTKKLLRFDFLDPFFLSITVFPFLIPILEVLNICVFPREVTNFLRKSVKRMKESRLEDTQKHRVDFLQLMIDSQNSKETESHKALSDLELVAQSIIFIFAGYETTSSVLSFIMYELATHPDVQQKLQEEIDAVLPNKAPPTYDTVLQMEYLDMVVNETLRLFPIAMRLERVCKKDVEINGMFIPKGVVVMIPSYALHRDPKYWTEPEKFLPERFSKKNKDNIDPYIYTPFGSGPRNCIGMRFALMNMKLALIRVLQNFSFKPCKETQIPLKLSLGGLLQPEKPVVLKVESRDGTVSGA
# Procedure: as §2, §3, §4
# [12] = MTS cell viability assay, normal colon cells; assay type: cell-based; settings: human, CCD18 Co normal colon cells; at 60 μM, CCD18 Co; read-out: impact on cell viability
# Procedure: as §1
# [13] = molecular target: T3, CYP2D6 (Homo sapiens, UniProt P10635); assay: in vitro; settings: recombinant CYP2D6
# T3 sequence (P10635 whole entry): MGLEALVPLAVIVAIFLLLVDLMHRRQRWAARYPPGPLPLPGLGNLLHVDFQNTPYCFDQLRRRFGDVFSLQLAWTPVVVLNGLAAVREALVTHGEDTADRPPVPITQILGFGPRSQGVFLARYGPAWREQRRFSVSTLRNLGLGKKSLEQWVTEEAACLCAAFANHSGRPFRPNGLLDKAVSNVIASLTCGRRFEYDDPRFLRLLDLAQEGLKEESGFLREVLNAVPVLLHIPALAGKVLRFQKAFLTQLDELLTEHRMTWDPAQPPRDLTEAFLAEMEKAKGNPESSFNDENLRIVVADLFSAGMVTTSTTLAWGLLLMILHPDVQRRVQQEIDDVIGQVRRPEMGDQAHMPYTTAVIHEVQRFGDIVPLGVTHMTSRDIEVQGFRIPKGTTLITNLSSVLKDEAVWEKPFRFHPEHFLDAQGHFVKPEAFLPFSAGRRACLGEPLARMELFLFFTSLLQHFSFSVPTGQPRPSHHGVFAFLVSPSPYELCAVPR
# Procedure: as §2, §3, §4
# [14] = molecular target: T4, CYP1A1 (Homo sapiens, UniProt P04798); assay: Fluorometric CYP inhibition assay, CEC dealkylation; assay type: biochemical; settings: for nature of inhibition of CYP1A1 activity: Eadie-Hofstee analysis, reversible; for Ki: apparent Ki, CEC dealkylation; for IC50: recombinant CYP1A1, CEC 0.5 μM
# T4 sequence (P04798 1-512): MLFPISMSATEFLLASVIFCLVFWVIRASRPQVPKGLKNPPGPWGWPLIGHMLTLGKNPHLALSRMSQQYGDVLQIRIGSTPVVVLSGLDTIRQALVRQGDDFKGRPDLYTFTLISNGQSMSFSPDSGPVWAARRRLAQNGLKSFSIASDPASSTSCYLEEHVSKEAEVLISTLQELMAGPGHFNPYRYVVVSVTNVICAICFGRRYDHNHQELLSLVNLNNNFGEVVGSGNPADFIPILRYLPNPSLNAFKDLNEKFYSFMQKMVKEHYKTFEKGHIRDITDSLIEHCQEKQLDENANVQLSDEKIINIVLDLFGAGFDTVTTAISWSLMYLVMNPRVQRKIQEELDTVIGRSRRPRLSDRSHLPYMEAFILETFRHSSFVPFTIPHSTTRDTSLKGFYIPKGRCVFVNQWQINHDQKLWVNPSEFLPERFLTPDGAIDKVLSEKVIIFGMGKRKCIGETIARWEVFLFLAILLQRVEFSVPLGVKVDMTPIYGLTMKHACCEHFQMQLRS
# Procedure: as §2, §3, §4
# [15] = molecular target: T5, CYP1A2 (Homo sapiens, UniProt P05177); assay: as above; assay type: biochemical; settings: for IC50: recombinant CYP1A2, CEC 5 μM
# T5 sequence (P05177 1-516): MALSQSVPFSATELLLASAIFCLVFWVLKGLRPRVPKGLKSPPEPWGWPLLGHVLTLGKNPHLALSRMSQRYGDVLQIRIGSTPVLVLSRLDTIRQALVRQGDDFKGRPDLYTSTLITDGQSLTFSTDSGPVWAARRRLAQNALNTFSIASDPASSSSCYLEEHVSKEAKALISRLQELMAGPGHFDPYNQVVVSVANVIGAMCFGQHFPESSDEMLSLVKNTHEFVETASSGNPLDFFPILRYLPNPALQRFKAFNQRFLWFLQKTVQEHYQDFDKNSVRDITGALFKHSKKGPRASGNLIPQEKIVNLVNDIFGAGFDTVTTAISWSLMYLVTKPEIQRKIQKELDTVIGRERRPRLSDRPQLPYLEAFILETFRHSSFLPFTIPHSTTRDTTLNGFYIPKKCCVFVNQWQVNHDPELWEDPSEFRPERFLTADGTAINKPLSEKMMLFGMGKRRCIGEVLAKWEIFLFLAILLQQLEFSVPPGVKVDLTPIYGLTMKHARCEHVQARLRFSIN
# Procedure: as §2, §3, §4
# [16] = molecular target: T3, CYP2D6; assay: biochemical
# Procedure: as §2, §3, §4
# [17] = system: CYP1A1; design: method as in PMID 10188874; settings: MCF-7 breast cancer cells; cited from earlier work
# [18] = molecular target: T2, CYP1B1; settings: published value for known inhibitor; cited from earlier work
# [19] = molecular target: T4, CYP1A1; settings: published value for known inhibitor; cited from earlier work
# [20] = recombinant CYP1B1, ERes 0.37 μM, read-out: IC50 CYP1B1
SMILES,IC50 [1],IC50 [3],IC50 [4],IC50 cell viability HepG [7],nature of inhibition of CYP1B1 activity [8],Ki [8],IC50 cell viability MCF-7 [9],nature of inhibition of CYP1A1 activity [14],Ki [14],"IC50 [8, 20]",IC50 [14],further results
"CCC1(c2ccccc2)C(=O)NC(=O)N(Cc2ccccc2)C1=O (single isomer, unassigned; (-)) [(−)-N-3-Benzyl-phenobarbital, reference compound]",300 ± 10 nM,,,,,,,,,,,IC50 [2]: 250 nM
"O=c1[nH]cc(F)c(=O)[nH]1 [Fluorouracil, fluorouracil, reference compound]",,23500 ± 1120 nM,55500 ± 3710 nM,,,,,,,,,
"CC(C)(O)CCCC1(C)CC(=O)c2cc(O)c(Br)cc2O1 (centres unmarked) [PBQ1, 7-Hydroxycymopochromanone]",,,,NI (no impact (<10% inhibition at 60 μM)),uncompetitive inhibition,260 ± 30 nM,NI (no impact (<10% inhibition at 60 μM)),partial non competitive; also recorded: partial noncompetitive inhibition,3070 ± 690 nM,,,"IC50 cell viability HT29 [3]: NI (no impact (<10% inhibition at 60 μM)); viability at 24 h, 60 µM [5]: < 10%; viability at 24 h, 60 µM [6]: < 10%; IC50 ([8]; human): 1420 ± 140 nM; viability at 24 h, 60 µM [10]: < 10%; IC50 ([11]; human, recombinant enzyme): 5070 ± 3540 nM; IC50 cell viability CCD18 Co [4]: NI (no impact (<10% inhibition at 60 μM)); viability at 24 h, 60 µM [12]: < 10%; IC50 [13]: 1030 ± 400 nM; nature of inhibition of CYP1A2 activity ([15]; Eadie-Hofstee analysis, reversible): noncompetitive inhibition; Ki ([15]; apparent Ki, CEC dealkylation): 9160 ± 4680 nM; IC50 ([15]; human, probe 7-ethoxy-3-cyanocoumarin (CEC)): 9750 ± 36.5 nM"
"C/C(=C\C(=O)c1cc(O)c(Br)cc1O)CCCC(C)(C)O [PBQ2, 7-hydroxycymopolone]",120 ± 60 nM,19800 ± 460 nM,55600 ± 3280 nM,NI (no impact (<10% inhibition at 60 μM)),partial noncompetitive inhibition,4.7 nM,NI (no impact (<10% inhibition at 60 μM)),uncompetitive inhibition,840 ± 70 nM,140 ± 40 nM,930 ± 260 nM,"IC50 [16]: 2750 ± 960 nM; IC50 ([11]; recombinant CYP3A4, BFC 50 μM, read-out: IC50 CYP3A4): 8310 ± 4670 nM; IC50 [15]: 10600 ± 6750 nM"
O=c1c(O)c(-c2ccccc2)oc2cc(O)cc(O)c12 [galangin],,,,,,,,,,,,"nature of inhibition of DMBA-induced CYP1A1 [17]: noncompetitive, dose-dependent"
"CC(=O)N1CCN(c2ccc(OCC3COC(Cn4ccnc4)(c4ccc(Cl)cc4Cl)O3)cc2)CC1 (centres unmarked) [ketoconazole, reference compound]",,,,,,,,,,6300 ± 1700 nM,40 ± 10 nM,IC50 [18]: < 10000 nM; IC50 [19]: < 10000 nM
